Laboratory results reported in patent publication US20250129135A1, “Multi-Agonist and Use Thereof” (priority 2021, published 2025).
Starred links: 1 amine or outer side, 2 acyl side, 3 side chain; linkers in the order of their positions; H or OH if unused. Non-standard residues stand in square brackets, D forms with d. Residues, ends and D or L forms follow the SMILES beside them. Groups on a side chain read outwards from the residue. *: point of attachment. C20 diacid = O=C(O)CCCCCCCCCCCCCCCCCCC(=O)*; αMePhe(2-F) = C[C@](N)(Cc1ccccc1F)C(=O)O; γGlu = O=C(O)[C@H](CCC(=O)[*:2])N[*:1]; αMeF = C[C@](N)(Cc1ccccc1)C(=O)O; αMeL = CC(C)C[C@](C)(N)C(=O)O; AEEA = NCCOCCOCC(=O)O; Ac3c = NC1(C(=O)O)CC1; Aib = CC(C)(N)C(=O)O

Legend:
Human GIP R = target: T1, Human GIP R (Homo sapiens, UniProt P48546); test: cAMP (HTRF) activity in CHO cells stably overexpressing GIP receptor; assay type: cell-based; settings: for Human GIP R Rel. A (Relative Activity): EC50 of human GIP / EC50 of compound; for EC50: stable transfected cell cAMP activity, at least 3 independent tests
T1 construct: expressed in transfected cells; host or cells: CHO
T1 sequence (P48546 22-466): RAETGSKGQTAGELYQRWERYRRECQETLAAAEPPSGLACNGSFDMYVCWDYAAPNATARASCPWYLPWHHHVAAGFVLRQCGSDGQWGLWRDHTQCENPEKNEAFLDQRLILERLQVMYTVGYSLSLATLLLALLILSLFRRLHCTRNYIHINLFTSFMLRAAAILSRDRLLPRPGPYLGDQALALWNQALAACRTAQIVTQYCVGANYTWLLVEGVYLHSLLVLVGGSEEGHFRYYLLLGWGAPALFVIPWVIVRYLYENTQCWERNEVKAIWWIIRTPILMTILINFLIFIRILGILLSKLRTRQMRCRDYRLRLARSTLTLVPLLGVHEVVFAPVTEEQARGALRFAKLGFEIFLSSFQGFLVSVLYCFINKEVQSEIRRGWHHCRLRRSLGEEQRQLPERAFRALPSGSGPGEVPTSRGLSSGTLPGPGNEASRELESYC
Summary of the method: (§1)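 Cells in HBSS are exposed to compound for 60 min at room temperature, followed by 60 min with detection reagent. EC50 (nM) is taken from concentration-response curves.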

Human GCG R = target: T2, Human GCG R (Homo sapiens, UniProt P47871); test: cAMP (HTRF) activity in HEK-293 cells stably overexpressing human GCG receptor; assay type: cell-based; settings: EC50 of human GCG / EC50 of compound
T2 construct: expressed in transfected cells; host or cells: HEK-293
T2 sequence (P47871 26-477): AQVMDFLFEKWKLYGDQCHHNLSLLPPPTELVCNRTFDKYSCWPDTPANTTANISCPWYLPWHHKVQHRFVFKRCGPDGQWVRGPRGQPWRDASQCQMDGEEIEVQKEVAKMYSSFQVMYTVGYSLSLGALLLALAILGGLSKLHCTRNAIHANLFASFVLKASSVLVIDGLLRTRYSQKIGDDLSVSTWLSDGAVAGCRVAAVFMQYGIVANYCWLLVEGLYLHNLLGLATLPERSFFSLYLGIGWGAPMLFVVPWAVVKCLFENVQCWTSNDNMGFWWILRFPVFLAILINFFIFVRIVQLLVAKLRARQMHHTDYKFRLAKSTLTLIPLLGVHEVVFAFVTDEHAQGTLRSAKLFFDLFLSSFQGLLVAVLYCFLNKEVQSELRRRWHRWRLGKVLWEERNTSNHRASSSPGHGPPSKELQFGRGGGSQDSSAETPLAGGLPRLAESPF
Summary of the method: as §1

RIN-m5F cells = assay type: cell-based, rat; settings: for Rel. A (Relative Activity) on RIN-m5F: relative to GLP-1(7-37)
Summary of the method: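 cAMP production measured in RIN-m5F cells resuspended in HBSS; compounds incubated 60 min at room temperature, then detection reagent added for a further 60 min before read-out.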

3T3-L1 adipocytes = settings: for Rel. A (Relative Activity) on 3T3-L1 adipocyte: relative to GIP
Summary of the method: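 Mouse 3T3-L1 preadipocytes were differentiated with IBMX, dexamethasone and insulin for 5 days, then insulin plus 10 uM rosiglitazone for 3 days, then 10% FBS medium for 2–3 days. Mature adipocytes received 10-point, 3-fold compound dilutions for 60 min at room temperature. cAMP was read by kit detection reagent after a further 60 min, with concentration-effect curves fitted.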

[1] = tested on: human primary liver cells; assay type: cell-based; settings: for Rel. A (Relative Activity) on human primary liver cells: relative to GCG
Summary of the method: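 Human primary hepatocytes, thawed at 37° C and resuspended in HBSS, exposed to compound for 60 min at room temperature. Detection reagent then added for 60 min before cAMP readout.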

Human GLP-1R = Human GLP-1R (Homo sapiens, UniProt P43220); test: cAMP (HTRF) activity in HEK-293 cells stably overexpressing human GLP-1 receptor; assay type: cell-based; design: expressed in transfected cells; host or cells: HEK-293; settings: for Human GLP-1R Rel. A (Relative Activity): EC50 of human GLP-1 (7-37) / EC50 of compound; for EC50: stable transfected cell cAMP activity, at least 3 independent tests
Chain of Human GLP-1R (P43220 24-463): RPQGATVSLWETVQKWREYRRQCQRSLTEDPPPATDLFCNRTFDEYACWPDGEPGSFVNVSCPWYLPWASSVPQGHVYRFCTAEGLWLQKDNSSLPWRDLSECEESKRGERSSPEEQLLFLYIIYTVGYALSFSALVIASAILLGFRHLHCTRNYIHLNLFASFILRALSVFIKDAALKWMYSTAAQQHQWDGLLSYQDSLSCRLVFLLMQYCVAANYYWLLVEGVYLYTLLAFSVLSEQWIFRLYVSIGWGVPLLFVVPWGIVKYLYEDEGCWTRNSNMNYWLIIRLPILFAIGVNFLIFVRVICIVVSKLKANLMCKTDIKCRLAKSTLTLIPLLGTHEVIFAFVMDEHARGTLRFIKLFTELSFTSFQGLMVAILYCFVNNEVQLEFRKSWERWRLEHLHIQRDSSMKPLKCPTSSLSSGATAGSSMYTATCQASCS
Summary of the method: as §1

SMILES	Human GIP R Rel. A (Relative Activity) (Human GIP R)	Human GCG R Rel. A (Relative Activity) (Human GCG R)	EC50 (RIN-m5F cells)	Rel. A (Relative Activity) on RIN-m5F (RIN-m5F cells)	EC50 (3T3-L1 adipocytes)	Rel. A (Relative Activity) on 3T3-L1 adipocyte (3T3-L1 adipocytes)	EC50 [1]	Rel. A (Relative Activity) on human primary liver cells [1]	Human GLP-1R Rel. A (Relative Activity) (Human GLP-1R)	EC50 (Human GLP-1R)	EC50 (Human GIP R)
CC[C@H](C)[C@H](NC(=O)[C@H](Cc1ccccc1)NC(=O)[C@H](C)NC(=O)C(C)(C)NC(=O)[C@H](CCC(N)=O)NC(=O)[C@H](C)NC(=O)[C@H](CCCCNC(=O)COCCOCCNC(=O)COCCOCCNC(=O)CC[C@H](NC(=O)CCCCCCCCCCCCCCCCCCC(=O)O)C(=O)O)NC(=O)[C@H](CCCCN)NC(=O)[C@H](CC(=O)O)NC(=O)[C@H](CC(C)C)NC(=O)[C@H](Cc1ccccc1)NC(=O)[C@@H](NC(=O)[C@H](CO)NC(=O)[C@H](Cc1ccc(O)cc1)NC(=O)[C@H](CC(=O)O)NC(=O)[C@H](CO)NC(=O)[C@@H](NC(=O)[C@](C)(Cc1ccccc1)NC(=O)[C@@H](NC(=O)CNC(=O)[C@H](CCC(N)=O)NC(=O)C(C)(C)NC(=O)[C@@H](N)Cc1ccc(O)cc1)[C@@H](C)O)[C@@H](C)O)[C@@H](C)CC)C(=O)N[C@@H](CCC(=O)O)C(=O)N[C@@H](Cc1ccc(O)cc1)C(=O)N[C@@H](CC(C)C)C(=O)N[C@@H](CC(C)C)C(=O)N[C@@H](CCC(=O)O)C(=O)N[C@@H](CO)C(=O)NC(C)(C)C(=O)N1CCC[C@H]1C(=O)N[C@@H](CO)C(=O)N[C@@H](CO)C(=O)NCC(=O)N[C@@H](C)C(=O)N1CCC[C@H]1C(=O)N1CCC[C@H]1C(=O)NC1(C(=O)N[C@@H](CO)C(N)=O)CC1 [Compound 29] (H-Y[Aib]QGT[αMeF]TSDYSIFLDKK([AEEA-AEEA-γGlu-C20 diacid])AQ[Aib]AFIEYLLES[Aib]PSSGAPP[Ac3c]S-NH2; N-terminus assumed)	58.58%	82.61%	0.633 nM	163.03%	20.7 nM	18.41%	2.93 nM	132.89%	275.00%	0.016 nM	–
CC[C@H](C)[C@H](NC(=O)[C@H](Cc1ccccc1)NC(=O)[C@H](C)NC(=O)C(C)(C)NC(=O)[C@H](CCC(N)=O)NC(=O)[C@H](C)NC(=O)[C@H](CCCCNC(=O)COCCOCCNC(=O)COCCOCCNC(=O)CC[C@H](NC(=O)CCCCCCCCCCCCCCCCCCC(=O)O)C(=O)O)NC(=O)[C@H](CCCCN)NC(=O)[C@H](CC(=O)O)NC(=O)[C@H](CC(C)C)NC(=O)[C@](C)(CC(C)C)NC(=O)[C@@H](NC(=O)[C@H](CO)NC(=O)[C@H](Cc1ccc(O)cc1)NC(=O)[C@H](CC(=O)O)NC(=O)[C@H](CO)NC(=O)[C@@H](NC(=O)[C@](C)(Cc1ccccc1)NC(=O)[C@@H](NC(=O)CNC(=O)[C@H](CCC(N)=O)NC(=O)C(C)(C)NC(=O)[C@@H](N)Cc1ccc(O)cc1)[C@@H](C)O)[C@@H](C)O)[C@@H](C)CC)C(=O)N[C@@H](CCC(=O)O)C(=O)N[C@@H](Cc1ccc(O)cc1)C(=O)N[C@@H](CC(C)C)C(=O)N[C@@H](CC(C)C)C(=O)N[C@@H](CCC(=O)O)C(=O)N[C@H](C(=O)N[C@@H](Cc1c[nH]cn1)C(=O)N1CCC[C@H]1C(=O)N[C@@H](CO)C(=O)N[C@@H](CO)C(=O)NCC(=O)N[C@@H](C)C(=O)N1CCC[C@H]1C(=O)N1CCC[C@H]1C(=O)NC1(C(=O)N[C@@H](CO)C(N)=O)CC1)[C@@H](C)O [Compound 2] (H-Y[Aib]QGT[αMeF]TSDYSI[αMeL]LDKK([AEEA-AEEA-γGlu-C20 diacid])AQ[Aib]AFIEYLLETHPSSGAPP[Ac3c]S-NH2; N-terminus assumed)	724.00%	24.57%	0.624 nM	165.38%	2.49 nM	152.63%	2.37 nM	164.32%	169.23%	0.026 nM	0.025 nM
CC[C@H](C)[C@H](NC(=O)[C@H](Cc1ccccc1)NC(=O)[C@H](C)NC(=O)C(C)(C)NC(=O)[C@H](CCC(N)=O)NC(=O)[C@H](C)NC(=O)[C@H](CCCCNC(=O)COCCOCCNC(=O)COCCOCCNC(=O)CC[C@H](NC(=O)CCCCCCCCCCCCCCCCCCC(=O)O)C(=O)O)NC(=O)[C@H](CCCCN)NC(=O)[C@H](CC(=O)O)NC(=O)[C@H](CC(C)C)NC(=O)[C@H](CC(C)C)NC(=O)[C@@H](NC(=O)[C@H](CO)NC(=O)[C@H](Cc1ccc(O)cc1)NC(=O)[C@H](CC(=O)O)NC(=O)[C@H](CO)NC(=O)[C@@H](NC(=O)[C@](C)(Cc1ccccc1F)NC(=O)[C@@H](NC(=O)CNC(=O)[C@H](CCC(N)=O)NC(=O)C(C)(C)NC(=O)[C@@H](N)Cc1ccc(O)cc1)[C@@H](C)O)[C@@H](C)O)[C@@H](C)CC)C(=O)N[C@@H](CCC(=O)O)C(=O)N[C@@H](Cc1ccccc1)C(=O)N[C@@H](CC(C)C)C(=O)N[C@@H](CC(C)C)C(=O)N[C@@H](CCC(=O)O)C(=O)N[C@@H](CO)C(=O)N[C@@H](Cc1c[nH]cn1)C(=O)N1CCC[C@H]1C(=O)N[C@@H](CO)C(=O)N[C@@H](CO)C(=O)NC(C)(C)C(=O)N[C@@H](Cc1c[nH]cn1)C(=O)N1CCC[C@H]1C(=O)N1CCC[C@H]1C(=O)NC1(C(=O)N[C@@H](CO)C(N)=O)CC1 [Compound 41] (H-Y[Aib]QGT[αMePhe(2-F)]TSDYSILLDKK([AEEA-AEEA-γGlu-C20 diacid])AQ[Aib]AFIEFLLESHPSS[Aib]HPP[Ac3c]S-NH2; N-terminus assumed)	247.95%	70.37%	0.136 nM	758.82%	1.51 nM	252.12%	0.907 nM	429.00%	366.67%	0.012 nM	–
CC[C@H](C)[C@H](NC(=O)[C@H](Cc1ccccc1)NC(=O)[C@H](C)NC(=O)C(C)(C)NC(=O)[C@H](CCC(N)=O)NC(=O)[C@H](C)NC(=O)[C@H](CCCCNC(=O)COCCOCCNC(=O)COCCOCCNC(=O)CC[C@H](NC(=O)CCCCCCCCCCCCCCCCCCC(=O)O)C(=O)O)NC(=O)[C@H](CCCCN)NC(=O)[C@H](CC(=O)O)NC(=O)[C@H](CC(C)C)NC(=O)[C@](C)(CC(C)C)NC(=O)[C@@H](NC(=O)[C@H](CO)NC(=O)[C@H](Cc1ccc(O)cc1)NC(=O)[C@H](CC(=O)O)NC(=O)[C@H](CO)NC(=O)[C@@H](NC(=O)[C@](C)(Cc1ccccc1)NC(=O)[C@@H](NC(=O)CNC(=O)[C@H](CCC(N)=O)NC(=O)C(C)(C)NC(=O)[C@@H](N)Cc1ccc(O)cc1)[C@@H](C)O)[C@@H](C)O)[C@@H](C)CC)C(=O)N[C@@H](CCC(=O)O)C(=O)N[C@@H](Cc1ccccc1)C(=O)N[C@@H](CC(C)C)C(=O)N[C@@H](CC(C)C)C(=O)N[C@@H](CCC(=O)O)C(=O)N[C@@H](CO)C(=O)N[C@@H](Cc1c[nH]cn1)C(=O)N1CCC[C@H]1C(=O)N[C@@H](CO)C(=O)N[C@@H](CO)C(=O)NC(C)(C)C(=O)N[C@@H](Cc1c[nH]cn1)C(=O)N1CCC[C@H]1C(=O)N1CCC[C@H]1C(=O)NC1(C(=O)N[C@@H](CO)C(N)=O)CC1 [Compound 33] (H-Y[Aib]QGT[αMeF]TSDYSI[αMeL]LDKK([AEEA-AEEA-γGlu-C20 diacid])AQ[Aib]AFIEFLLESHPSS[Aib]HPP[Ac3c]S-NH2; N-terminus assumed)	2262.50%	36.77%	0.717 nM	143.93%	3.3 nM	115.21%	4.19 nM	92.93%	231.58%	–	0.008 nM
